Calls of active or inactive are those of the source. No cut-off for these calls is given here.
Experiments:
[1] = Ratio of AUC (0 to t) to observed AUC (0 to infinity) in Sprague-Dawley rat at 100 mg/kg, ig measured for 24 hrs by LC-MS analysis; format: ADME, organism-based; conditions: in vivo, po
[2] = Toxicity in Kunming mouse assessed as animal activity at 1000 mg/kg, ig measured for 14 days; format: organism-based; conditions: in vivo, po, 336 h, time 14 day
[3] = Cytotoxicity against LPS-stimulated mouse RAW264.7 cells assessed as cell viability at 5 to 20 microM measured after 24 hrs; format: cell-based; conditions: LPS-stimulated RAW264.7 cells, dose 5-20 µM, read-out: Activity
HCT-116 [4] = test: Induction of apoptosis in human HCT-116 cells assessed as chromatin pyknosis at 2.5 to 15 uM measured after 48 hrs by Giemsa staining method; format: functional, cell-based; conditions: dose 2.5-15 µM
HCT-116 [5] = test: Induction of apoptosis in human HCT-116 cells assessed as necrotic cells at 10 uM measured after 48 hrs by Annexin V-FITC/PI staining based flow cytometry (reference value: 1.5%); format: functional
HCT-116 [6] = test: Induction of apoptosis in human HCT-116 cells assessed as early apoptotic cells at 5 uM measured after 48 hrs by Annexin V-FITC/PI staining based flow cytometry (reference value: 2.14%); format: functional
[7] = target: Signal transducer and activator of transcription 3 (Homo sapiens) (UniProt P40763); test: Inhibition of STAT3 in human MGC-803 cells assessed as decrease in Bcl-2 expression at 4 to 16 uM measured after 48 hrs by western blot assay; format: cell-based; conditions: dose 4-16 µM
HCT-116 [8] = test: Induction of apoptosis in human HCT-116 cells assessed as early apoptotic cells at 20 uM measured after 48 hrs by Annexin V-FITC/PI staining based flow cytometry (reference value: 2.14%); format: functional
HCT-116 [9] = test: Induction of apoptosis in human HCT-116 cells assessed as late apoptotic cells at 10 uM measured after 48 hrs by Annexin V-FITC/PI staining based flow cytometry (reference value: 1.42%); format: functional
HCT-116 [10] = test: Induction of apoptosis in human HCT-116 cells assessed as formation of apoptotic bodies at 2.5 to 15 uM measured after 48 hrs by Giemsa staining method; format: functional, cell-based; conditions: dose 2.5-15 µM
HCT-116 [11] = test: Antimetastatic activity against human HCT-116 cells assessed as inhibition of cell invasion measured after 36 hrs by transwell assay; format: functional, cell-based; conditions: dose 2.5-15 µM
HepG2 = test: Antiproliferative activity against human HepG2 cells assessed as inhibition of cell proliferation measured after 72 hrs by MTT assay; format: functional, cell-based; conditions: HepG2, 72 h
[12] = Cmax in Sprague-Dawley rat at 100 mg/kg, ig measured for 24 hrs by LC-MS analysis; format: ADME, organism-based; set-up: route intragastric, time 24 hrs, dose 100 mg/kg; conditions: in vivo, po
MGC-803 [13] = test: Cytotoxicity against human MGC-803 cells assessed as reduction in cell viability at <20 uM measured after 24 hrs by CCK8 assay; format: cell-based; conditions: mgc-803, 24 h
HCT-116 [14] = test: Induction of apoptosis in human HCT-116 cells assessed as necrotic cells at 5 uM measured after 48 hrs by Annexin V-FITC/PI staining based flow cytometry (reference value: 1.5%); format: functional
HCT-116 [15] = test: Induction of apoptosis in human HCT-116 cells assessed as viable cells at 2.5 uM measured after 48 hrs by Annexin V-FITC/PI staining based flow cytometry assay (reference value: 94.9%); format: functional; conditions: read-out: Activity
HCT-116 [16] = test: Induction of ROS generation in human HCT-116 cells at 2.5 to 15 uM measured after 36 hrs by DCFH-DA staining based fluorescence microscopic analysis; format: functional, cell-based; conditions: dose 2.5-15 µM
HCT-116 [17] = test: Antimetastatic activity against human HCT-116 cells assessed as inhibition of cell migration measured after 36 hrs by transwell assay; format: functional, cell-based; conditions: dose 2.5-15 µM
[18] = target: Signal transducer and activator of transcription 3 (Homo sapiens) (UniProt P40763); test: Inhibition of STAT3 in human HCT-116 cells assessed as inhibition of nuclear translocation of STAT3 at 10 uM measured after 3 hrs by Hoechst/fluorochrome-conjugated antibody staining based confocal laser microscopy; format: cell-based
[19] = Half life in Sprague-Dawley rat at 100 mg/kg, ig measured for 24 hrs by LC-MS analysis; format: ADME, organism-based; conditions: in vivo, po
HCT-116 [20] = test: Antiproliferative activity against human HCT-116 cells assessed as inhibition of cell proliferation measured after 72 hrs by MTT assay; format: functional, cell-based; conditions: HCT-116, 72 h
MGC-803 [21] = test: Antimetastatic activity against human MGC-803 cells assessed as inhibition of cell invasion measured after 24 hrs by transwell assay; format: functional, cell-based; conditions: dose 2.5-15 µM
HCT-116 [22] = test: Induction of apoptosis in human HCT-116 cells assessed as late apoptotic cells at 2.5 uM measured after 48 hrs by Annexin V-FITC/PI staining based flow cytometry assay (reference value: 1.42%); format: functional
MGC-803 [23] = test: Inhibition of clonogenicity in human MGC-803 cells assessed as reduction in colony formation measured after 6 days by crystal violet staining based analysis; format: functional, cell-based; conditions: dose 2-16 µM, time 6.0 day
MGC-803 [24] = test: Induction of cell cycle arrest in human MGC-803 cells at 2.5 to 20 uM measured after 48 hrs by propidium iodide staining based flow cytometry analysis; format: functional; conditions: dose 2.5-20 µM
HGC-27 = test: Antiproliferative activity against human HGC-27 cells assessed as inhibition of cell proliferation measured after 72 hrs by MTT assay; format: functional, cell-based; conditions: HGC-27, 72 h
[25] = Observed apparent oral clearance in Sprague-Dawley rat at 100 mg/kg measured for 24 hrs by LC-MS analysis; format: ADME, organism-based; conditions: in vivo
HCT-116 [26] = test: Induction of apoptosis in human HCT-116 cells assessed as upregulation of Bax expression at 2.5 to 10 uM measured after 48 hrs by western blot assay; format: functional, cell-based; conditions: dose 2.5-10 µM
HCT-116 [27] = test: Inhibition of clonogenicity in human HCT-116 cells assessed as reduction in colony formation measured after 9 days by crystal violet staining based analysis; format: functional, cell-based; conditions: dose 1.25-10 µM, time 9.0 day
[28] = target: Signal transducer and activator of transcription 3 (Homo sapiens) (UniProt P40763); test: Inhibition of STAT3 in human HCT-116 cells assessed as decrease in Bcl-2 expression at 2.5 to 10 uM measured after 48 hrs by western blot assay; format: cell-based; conditions: dose 2.5-10 µM
HCT-116 [29] = test: Induction of apoptosis in human HCT-116 cells assessed as early apoptotic cells at 2.5 uM measured after 48 hrs by Annexin V-FITC/PI staining based flow cytometry assay (reference value: 2.14%); format: functional
MGC-803 [30] = test: Downregulation of STAT3 expression in human MGC-803 cells at 4 to 16 uM measured after 48 hrs by western blot assay; format: functional, cell-based; conditions: dose 4-16 µM
HCT-116 [31] = test: Antiproliferative activity against human HCT-116 cells assessed as decrease in cell population at S-phase at 1.25 to 10 uM measured after 24 hrs by EdU incorporation based fluorescence microscopic analysis; format: functional; conditions: dose 1.25-10 µM
MGC-803 [32] = test: Antiproliferative activity against human MGC-803 cells assessed as inhibition of cell proliferation measured after 72 hrs by MTT assay; format: functional, cell-based; conditions: MGC-803, 72 h
[33] = Cytotoxicity against human HCT-116 cells assessed as cell viability at <36 uM measured after 24 hrs by CCK8 assay; format: cell-based; conditions: read-out: Activity

Sequence of Signal transducer and activator of transcription 3 (Homo sapiens) (P40763 whole entry): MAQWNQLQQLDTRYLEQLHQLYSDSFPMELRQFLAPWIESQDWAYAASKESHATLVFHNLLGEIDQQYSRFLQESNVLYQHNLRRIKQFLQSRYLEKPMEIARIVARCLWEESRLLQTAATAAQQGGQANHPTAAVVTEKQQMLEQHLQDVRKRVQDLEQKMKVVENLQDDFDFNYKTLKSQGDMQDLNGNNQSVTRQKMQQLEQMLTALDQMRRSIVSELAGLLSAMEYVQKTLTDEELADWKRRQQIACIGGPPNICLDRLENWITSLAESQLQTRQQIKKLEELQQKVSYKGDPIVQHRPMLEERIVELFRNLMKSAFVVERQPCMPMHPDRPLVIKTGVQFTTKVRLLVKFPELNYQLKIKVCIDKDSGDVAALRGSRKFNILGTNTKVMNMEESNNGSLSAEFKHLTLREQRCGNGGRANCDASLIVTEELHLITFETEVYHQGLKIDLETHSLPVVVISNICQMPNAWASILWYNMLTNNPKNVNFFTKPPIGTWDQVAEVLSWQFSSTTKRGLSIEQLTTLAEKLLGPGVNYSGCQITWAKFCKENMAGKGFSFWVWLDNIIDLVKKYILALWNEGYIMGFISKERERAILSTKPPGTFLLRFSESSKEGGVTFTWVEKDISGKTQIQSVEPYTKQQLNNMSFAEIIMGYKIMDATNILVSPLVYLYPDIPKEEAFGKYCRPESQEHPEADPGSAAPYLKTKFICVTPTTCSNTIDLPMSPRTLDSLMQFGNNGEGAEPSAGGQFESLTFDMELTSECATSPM

Cc1c(Cl)cccc1Nc1ccccc1C(=O)NCCc1c[nH]c2ccccc12
Ratio AUC [1]: 0.87 | Activity [2]: Non-Toxic | viability at 24 h [3]: > 80% | Activity (HCT-116 [4]): Active | Activity (HCT-116 [5]): 2.42% | Activity (HCT-116 [6]): 5.44% | inhibition [7]: Active | Activity (HCT-116 [8]): 42.5% | Activity (HCT-116 [9]): 6.12% | Activity (HCT-116 [10]): Active | Activity (HCT-116 [11]): Dose-Dependent Effect | IC50 (HepG2): 7.37 µM | Cmax [12]: 150 ng/mL | Activity (MGC-803 [13]): Non-Toxic | Activity (HCT-116 [14]): 2.81% | viability at 2.5 µM (HCT-116 [15]): 91.3% | Activity (HCT-116 [16]): Active | Activity (HCT-116 [17]): Dose-Dependent Effect | inhibition [18]: Active | half-life [19]: 7.58 h | IC50 (HCT-116 [20]): 8.42 µM | Activity (MGC-803 [21]): Dose-Dependent Effect | Activity (HCT-116 [22]): 3.12% | inhibition (MGC-803 [23]): Dose-Dependent Effect | Activity (MGC-803 [24]): inactive | IC50 (HGC-27): 15.5 µM | CL/F [25]: 51.75 (mg/kg)/(microg/ml)/hr | Activity (HCT-116 [26]): Active | inhibition (HCT-116 [27]): Dose-Dependent Effect | inhibition [28]: Active | Activity (HCT-116 [29]): 3.48% | inhibition (MGC-803 [30]): Active | Activity (HCT-116 [31]): Active | IC50 (MGC-803 [32]): 9.96 µM | viability at 24 h [33]: ≥ 80%

Source: ChEMBL document CHEMBL4818998, “Melatonin derivatives combat with inflammation-related cancer by targeting the Main Culprit STAT3” (Eur J Med Chem, 2021)
